These are literature values, as cited in patent US20250262358A1, “SURGICAL SYSTEM AND METHODS OF USE” (MEDTRONIC, INC., priority 2021, published 2025).

The subject of the data set is myofibroblast formation. To be noted: animal studies of capsular contracture with breast implants; Ajmal et al. (2003).

As to `O=S(=O)([O-])CCS.[Na+]` [MESNA, sodium 2-mercaptoethane sulfonate], the myofibroblast formation result is recorded as “diminish myofibroblast formation”.
